Molecular target: Focal adhesion kinase (FAK) (Homo sapiens, UniProt Q05397)
Assay: biochemical

Focal adhesion kinase (FAK), sequence (Q05397 393-698): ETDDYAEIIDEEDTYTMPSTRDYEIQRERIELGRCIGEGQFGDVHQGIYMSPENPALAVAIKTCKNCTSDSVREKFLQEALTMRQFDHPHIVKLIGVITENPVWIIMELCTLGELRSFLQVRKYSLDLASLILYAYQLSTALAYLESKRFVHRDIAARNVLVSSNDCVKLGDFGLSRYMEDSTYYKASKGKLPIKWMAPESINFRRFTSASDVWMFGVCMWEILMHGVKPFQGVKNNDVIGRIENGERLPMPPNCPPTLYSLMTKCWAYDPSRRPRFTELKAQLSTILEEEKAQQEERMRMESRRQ

SMILES: CS(=O)(=O)c1cccc(CNc2nc(Nc3ccc4c(c3)CCC(=O)N4)ncc2C(F)(F)F)c1 [PF573228, 6‐[[4‐[(3‐methylsulfonylphenyl)methylamino]‐5‐(trifluoromethyl)pyrimidin‐2‐yl]amino]‐3,4‐dihydro‐1H‐quinolin‐2‐one]
- IC50: 9 ± 0.03 nM
